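Step 1: Grow cells in 96-well plates. Step 2: Expose to compound for 48 hours at 5 concentrations. Step 3: Interpolate endpoints linearly; if unreached, use highest concentration. GI50 = concentration required for 50% inhibition of growth.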 Calls of active or inactive are those of the source. Rule as the data show it: active = GI50 up to about 1.1 µM and inactive = higher.
Experiments:
Assay in all cases: NCI anticancer screen, dose series, 48 h
[1] = tested on: ACHN
[2] = tested on: CCRF-CEM
[3] = tested on: HCC 2998
[4] = tested on: HT-29
[5] = tested on: MCF7
[6] = tested on: MDA-MB-231
[7] = tested on: MDA-N
[8] = tested on: NCI-H522
[9] = tested on: NCI/ADR-RES
[10] = tested on: RPMI-8226
[11] = tested on: RXF 393
[12] = tested on: SF-295
[13] = tested on: SK-MEL-28
[14] = tested on: SK-MEL-5
[15] = tested on: SK-OV-3
[16] = tested on: T47D
[17] = tested on: TK-10
[18] = tested on: UO-31
[19] = tested on: M14

Row | SMILES | GI50 [1] | GI50 [2] | GI50 [3] | GI50 [4] | GI50 [5] | GI50 [6] | GI50 [7] | GI50 [8] | GI50 [9] | GI50 [10] | GI50 [11] | GI50 [12] | GI50 [13] | GI50 [14] | GI50 [15] | GI50 [16] | GI50 [17] | GI50 [18] | GI50 [19]
1 | Nc1nc(Cl)cc(NCC2(O)CC2)n1 | > 100 µM (inactive) | > 100 µM (inactive) | > 100 µM (inactive) | > 100 µM (inactive) | > 100 µM (inactive) | > 100 µM (inactive) | > 100 µM (inactive) | > 100 µM (inactive) | > 100 µM (inactive) | > 100 µM (inactive) | > 100 µM (inactive) | > 100 µM (inactive) | > 100 µM (inactive) | > 100 µM (inactive) | > 100 µM (inactive) | > 100 µM (inactive) | > 100 µM (inactive) | > 100 µM (inactive) | 
2 | NCCCCNC1(c2cc3ccccc3s2)CCCCC1 | 11.1 µM (inactive) | 1.69 µM (inactive) | 1.65 µM (inactive) | 2.42 µM (inactive) | 2.88 µM (inactive) | 3.22 µM (inactive) | 1.71 µM (inactive) | 2.42 µM (inactive) | 6.9 µM (inactive) | 1.84 µM (inactive) | 3.07 µM (inactive) | 2.84 µM (inactive) | 1.83 µM (inactive) | 1.74 µM (inactive) | 14.5 µM (inactive) | 2.29 µM (inactive) | 3.87 µM (inactive) | 2.56 µM (inactive) | 1.98 µM (inactive)
3 | OC(c1ccc(F)cc1)(c1ccc(F)cc1)C1CC1 | 30.1 µM (inactive) | 24.8 µM (inactive) | 20.5 µM (inactive) | 21.5 µM (inactive) | 35.7 µM (inactive) | 36.1 µM (inactive) | 19.4 µM (inactive) | 21.2 µM (inactive) | 21.3 µM (inactive) | 26.9 µM (inactive) | 26.9 µM (inactive) | 27.9 µM (inactive) | 30 µM (inactive) | 16.6 µM (inactive) | 37.9 µM (inactive) | 38 µM (inactive) | 30.7 µM (inactive) | 21.3 µM (inactive) | 21.5 µM (inactive)
4 | CCCCCc1cc2cc3c(c(O)c2c(=O)[nH]1)C1(CC3)C(=O)c2c(O)c3c(c(O)c2C1=O)C(=O)C(OC)=CC3=O (centres undefined) | 0.522 µM (active) | 0.0859 µM (active) | 1.05 µM (active) | 0.718 µM (active) | 0.311 µM (active) | 0.479 µM (active) | 1.3 µM (inactive) | 0.359 µM (active) | 1.17 µM (inactive) | 0.336 µM (active) | 0.877 µM (active) | 3.01 µM (inactive) | 2.01 µM (inactive) | 0.64 µM (active) | 2.61 µM (inactive) | 0.239 µM (active) |  | 0.687 µM (active) | 0.893 µM (active)
5 | CC(=O)/N=C1/N(/C=C2\C(=O)Oc3ccccc3C2=O)C(=O)/C(=C/c2cccc(Cl)c2Cl)N1C | 13.7 µM (inactive) | 11.1 µM (inactive) | 16.7 µM (inactive) | 19.1 µM (inactive) | 25.7 µM (inactive) | 29.9 µM (inactive) | 42.8 µM (inactive) | 18.2 µM (inactive) | 22.5 µM (inactive) | 12.4 µM (inactive) | 31.6 µM (inactive) | 34.4 µM (inactive) | 29 µM (inactive) | 12.9 µM (inactive) | 17.2 µM (inactive) | 32.1 µM (inactive) |  |  | 14.8 µM (inactive)
6 | COc1nc(C)nc2sc3c(c12)CCCC3 | > 100 µM (inactive) |  | > 100 µM (inactive) | > 100 µM (inactive) | > 100 µM (inactive) | > 100 µM (inactive) | > 100 µM (inactive) | > 100 µM (inactive) | > 100 µM (inactive) | 55.3 µM (inactive) | > 100 µM (inactive) | > 100 µM (inactive) | > 100 µM (inactive) | > 100 µM (inactive) |  | > 100 µM (inactive) | > 100 µM (inactive) | 89.9 µM (inactive) | 
7 | COC(=O)[C@H]1[C@H](C(=O)OC)[C@@H](C)c2c(ccc3c2[nH]c2ccccc23)[C@@H]1C | 44.5 µM (inactive) | 22.4 µM (inactive) |  | 19.1 µM (inactive) | 43.4 µM (inactive) | 25.6 µM (inactive) | 90.8 µM (inactive) | 41.5 µM (inactive) | > 100 µM (inactive) | 11.8 µM (inactive) | 14.1 µM (inactive) | 18.6 µM (inactive) | > 100 µM (inactive) | > 100 µM (inactive) | 92.9 µM (inactive) | 13 µM (inactive) | 26.4 µM (inactive) | > 100 µM (inactive) | 24.2 µM (inactive)
8 | CC(C)(C)C(=O)OC(N)/C=C/c1ccccc1 (centres undefined) | > 100 µM (inactive) | > 100 µM (inactive) | > 100 µM (inactive) | > 100 µM (inactive) | > 100 µM (inactive) | > 100 µM (inactive) | > 100 µM (inactive) | > 100 µM (inactive) | > 100 µM (inactive) | > 100 µM (inactive) | > 100 µM (inactive) | > 100 µM (inactive) | > 100 µM (inactive) | > 100 µM (inactive) | > 100 µM (inactive) | > 100 µM (inactive) |  | > 100 µM (inactive) | > 100 µM (inactive)
9 | CC(C)C[C@H](NC(=O)[C@H](Cc1ccccc1)NC(=O)c1cnccn1)B(O)O [BORTEZOMIB] | < 0.01 µM (active) |  | < 0.01 µM (active) | < 0.01 µM (active) | < 0.01 µM (active) | < 0.01 µM (active) | < 0.01 µM (active) | < 0.01 µM (active) | 0.0141 µM (active) | 0.01 µM (active) | < 0.01 µM (active) | < 0.01 µM (active) | < 0.01 µM (active) |  | 0.0329 µM (active) | < 0.01 µM (active) | < 0.01 µM (active) | < 0.01 µM (active) | < 0.01 µM (active)
10 | CC(C)C(C/C=C1/CC(CO)(COC(=O)CC(C(C)C)C(C)C)OC1=O)C(C)C (centres undefined) | 1.79 µM (inactive) | 2.74 µM (inactive) | 2.89 µM (inactive) | 16.3 µM (inactive) | 13.6 µM (inactive) | 4.21 µM (inactive) | 11.5 µM (inactive) | 12.9 µM (inactive) | 16 µM (inactive) |  | 11.1 µM (inactive) | 0.259 µM (active) | 14.2 µM (inactive) | 10.4 µM (inactive) | 16.7 µM (inactive) | 0.982 µM (active) | 2.08 µM (inactive) | 2.86 µM (inactive) | 12.5 µM (inactive)
11 | C=C(C(=O)O)[C@@H]1C[C@@H]2O[C@H]1CC(C)=CCC/C(C)=C/CC[C@@]2(C)O | > 100 µM (inactive) | > 100 µM (inactive) | > 100 µM (inactive) |  | > 100 µM (inactive) | > 100 µM (inactive) | > 100 µM (inactive) | > 100 µM (inactive) | > 100 µM (inactive) | > 100 µM (inactive) | > 100 µM (inactive) | > 100 µM (inactive) | > 100 µM (inactive) | > 100 µM (inactive) |  | > 100 µM (inactive) | > 100 µM (inactive) | > 100 µM (inactive) | > 100 µM (inactive)
12 | COC(=O)C1=C(C)NC2=C(C(=O)c3ccccc32)C1c1cn(-c2ccccc2)nc1-c1ccccc1 (centres undefined) | 17.2 µM (inactive) | 23.4 µM (inactive) | 13.6 µM (inactive) |  | 26.8 µM (inactive) | > 100 µM (inactive) | > 61.7 µM (inactive) | > 53.5 µM (inactive) | 70.6 µM (inactive) | 2.67 µM (inactive) | > 44.8 µM (inactive) | 34.5 µM (inactive) | 96.8 µM (inactive) | > 100 µM (inactive) | > 100 µM (inactive) | 20.3 µM (inactive) | > 100 µM (inactive) | 3.91 µM (inactive) | > 100 µM (inactive)
13 | OC(Cc1cc(CC(O)(C(F)(F)F)C(F)(F)F)nc(CC(O)(C(F)(F)F)C(F)(F)F)c1)(C(F)(F)F)C(F)(F)F | 0.681 µM (active) | > 10 µM (inactive) | 1.83 µM (inactive) | 1.63 µM (inactive) | 0.826 µM (active) | 1.92 µM (inactive) | 1.45 µM (inactive) | 3.06 µM (inactive) | 1.66 µM (inactive) | > 10 µM (inactive) | 2.18 µM (inactive) | 0.509 µM (active) | 1.98 µM (inactive) | 1.51 µM (inactive) | 3.96 µM (inactive) | 0.755 µM (active) | 3.99 µM (inactive) |  | 2.43 µM (inactive)
14 | O=C(O)C1CCCCN1CCc1c[nH]c2ccccc12 (centres undefined) | > 100 µM (inactive) | > 100 µM (inactive) | > 100 µM (inactive) | > 100 µM (inactive) | > 100 µM (inactive) | > 100 µM (inactive) | > 100 µM (inactive) | > 100 µM (inactive) | > 100 µM (inactive) | > 100 µM (inactive) | > 100 µM (inactive) | > 100 µM (inactive) | > 100 µM (inactive) |  | > 100 µM (inactive) | > 100 µM (inactive) | > 100 µM (inactive) |  | > 100 µM (inactive)
15 | COc1ccc2nc3c(nc2c1)C(C)(C)C=C3c1ccc(Br)cc1 | > 100 µM (inactive) | > 100 µM (inactive) | > 100 µM (inactive) | > 100 µM (inactive) | > 100 µM (inactive) | > 100 µM (inactive) | > 100 µM (inactive) | > 100 µM (inactive) | > 100 µM (inactive) | > 100 µM (inactive) | > 100 µM (inactive) |  | > 10 µM (inactive) | > 100 µM (inactive) |  | > 100 µM (inactive) | > 100 µM (inactive) |  | > 100 µM (inactive)
